From US7550507B2, “2-(alpha-hydroxypentyl) benzoate and its preparation and use” (Institute of Materia Medica, Chinese Academy of Medical …, priority 2002, dated 2009) come the findings set out here.

The test system of assay [1] is platelet aggregation induced by ADP. Description: Platelet aggregation induced by ADP in PRP of rats after oral administration (Born method). The format is in vivo, male Wistar rats. Particulars: ADP 5 μmol/L. The protocol: Animal: male Wistar rats (260-280 g), from the Animal Center of the Chinese Academy of Medical Sciences.
Potassium 2-(1-hydroxypentyl)-benzoate, dl-PHPB),
ADP, obtained from Shanghai Institute of Biochemistry, Acedemia Sinica.
Equipment: Platelet Aggregometer (type: PAT-4A MEGURO-KU, TOKYO, JAPAN.
Groups: Animals were divided into four groups:
1) Control group: double-distilled water (400 mg/kg) was adimistrated per os (p.o) 30 minutes prior blood sampling;
2) Dl-PHPB (400 mg/kg) was administrated per os (p.o) 30 minutes prior to the blood sampling;
3) Dl-PHPB (400 mg/kg) was administrated per os (p.o) 60 minutes prior to the blood sampling;
4) Dl-PHPB (200 mg/kg) was administrated per os (p.o) 30 minutes prior to the blood sampling;
After oral administration of dl-PHPB, blood was drawn from the carotid of rats at the time points of 30 and 60 minutes, respectively. Platelet rich plasma (PRP) and platelet poor plasma (PPP) were prepared upon common procedure. According to the method described by of Born, PRP (200 μl) was put on the Platelet Aggregometer and pre-incubated at 37° C. for 5 minutes and then ADP with the final concentration of 5 μmol/L was added to induce platelet aggregation. The maximum aggregation was measured 5 minutes after the addition of ADP.

The next assay deals with isolated hearts on rats. Put plainly: Cardiac arrhythmia induced by ischemia-reperfusion in isolated rat hearts (Langendorff perfusion). Set-up: species or system male Wistar rats. The note with it: for Duration of Arrhythmia: 15 min ischemia, 30 min reperfusion, control 22.5 ± 9.5; for VT Duration: control 8.2 ± 7.9; for VF Incidence: control 33.3; for Spasmic VT Incidence: control 66.7; for VE Incidence: control 83.3; for VT Incidence: control 100. The protocol: Animals: male Wistar rats, 250-300 g, from the Animal Center of the Chinese Academy of Medical Sciences, randomly grouped.
Langendoff perfusion system;
XD-7100 ECG, Shanghai Medical Electronic Devices Factory
(1) remove the rat heart quickly after decapitation and put it into K—H solution at 4° C., fix the aorta to the perfusion system;
(2) perfuse the heart with K—H solution, 6-8 ml/min, 37±0.5° C., under the pressure of about 60 mmH2O;
(3) connect the two copper electrodes to the cardiac apex and the bottom of the right atria and record the cardiogram;
(4) perporate under the left anterior descending branch of the coronary artery with 3/0 line;
(5) perfuse the heart for 10 minutes and record the normal cardiogram;
(6) ligate the left anterior descending branch of the coronary artery to make myocardial ischemia for 15 minutes;
(7) nip the line and resume the perfusion, record the change of cardiogram for 30 minutes (mainly on VF and Spasmic VT);
(8) dissolve the dl-PHPB at pH 1.5 to a desired concentration, add it into K—H solution to do the experiments.

The test system of another assay is rats of permanent MCAO. Put plainly: Infarction area after local cerebral ischemia (permanent MCAO) in rats, TTC staining. It counts as in vivo, male Wistar rats. Particulars: 24 hours after MCAO; for infarct area (weight percentage of the infarct tissue to the total cerebral tissue), X ± SD: 200 mg/kg p.o. with HCl (pH 1.6) 0.5 ml, 30 min prior to ischemia, control 26.99 ± 3.51. The protocol:
Animal: male Wistar rats (250-280 g), from the Animal Center of the Chinese Academy of Medical Sciences.
dl-PHPB was dissolved in double distilled water.
Methods: Middle cerebral artery occlusion(MCAO): the rats were anesthetized by trichloroacetaldehyde monohydrate (350 mg/kg, ip). The left CCA was exposed through a middle neck incision and was carefully dissected free from surrounding nerves. The ICA and ECA were isolated. Then a 4 cm long 0.26 mm diameter nylon suture was inserted through proximal ECA into ICA for a length of […] from the bifurcation. The wounds were sutured and the rats were released. The room temperature was kept 24-25° C. during the test.
Animals were divided into two groups, 1) administration group: dl-PHPB (200 mg/kg) and HCl (pH 1.6) 0.5 ml (to mimic the acidic condition of the human stomach) were administrated per os (p.o) 30 minutes prior to ischemia; 2) Control group: double-distilled water and HCl (pH 1.6) 0.5 ml were administrated per os (p.o) 30 minutes prior to ischemia.
The anaesthetized animals were decapitated 24 hours after MCAO. Each brain were rapidly removed and kept in ice-cold saline (0-4° C.). After 10 minutes, the coronal section was sliced into five pieces after the removal of bulbus olfactus, cerebellum, and low brain stem. Upon cutting, the first cut was at the center point of the connection line of the polus anterior of cerebrum and the optic chiasm, the second cut was at the site of optic chiasm, the third was at the site of infundibulum stalk, and the fourth was between the infundibulum stalk and the caudal pole of posterior lobe. The sliced brain was kept in a 5 ml solution of TTC (4%) and K2HPO4 (1M), shaded and incubated at 37° C. for 30 minutes. During the incubation, slices were turned over every 7 -8 minutes. […] The infarcted tissue was separated from the normal tissue and weighed. The infarction area is calculated from the weight percentage of the infarct tissue to the total cerebral tissue.

“And” between values parts separate entries of the source, which are not always exact repeats. Identical values can stand only once. Marks after values point to notes of the source that are not given here.

On to `CCCCC(O)c1ccccc1C(=O)[O-].[K+]` (racemic) [dl-PHPB, Potassium dl-2-(α-hydroxypentyl) benzoate], for which the Rate of inhibition in assay [1] (200 mg/kg p.o., 30 min) is given as 6.62%; in assay [1] (400 mg/kg p.o., 30 min) it was 19.31%; in assay [1] (400 mg/kg p.o., 60 min), 10.21%. Moreover, the “Duration of Arrhythmia” value worked out at 1.7 ± 0.6 min in the assay on isolated hearts on rats (10^−4 mol/L in K-H solution) and 23.3 ± 5.8 min in the assay on isolated hearts on rats (10^−5 mol/L in K-H solution). Also, the “VT Duration” value in the assay on isolated hearts on rats (10^−4 mol/L) stood at 1.1 ± 0.6 min; with isolated hearts on rats (10^−5 mol/L), 5.0 ± 6.5 min. Moreover, the “VF Incidence” value is given as 0% in the assay on isolated hearts on rats (10^−4 mol/L) and 33.3% in the assay on isolated hearts on rats (10^−5 mol/L). Moreover, the “Spasmic VT Incidence” value is given as 0* % with isolated hearts on rats (10^−4 mol/L) and 50% in the assay with isolated hearts on rats (10^−5 mol/L). Further, the “VE Incidence” value with isolated hearts on rats (10^−4 mol/L) came to 42.9%; in the assay with isolated hearts on rats (10^−5 mol/L), 66.7%. Further, the “VT Incidence” value with isolated hearts on rats (10^−4 mol/L) and with isolated hearts on rats (10^−5 mol/L) was 100% each time. In addition, the “infarct area, individual animals of treated group” value in the assay with rats of permanent MCAO (200 mg/kg p.o. 30 min prior to ischemia, single rats) was 18.79% and 26.01% and 20.24% and 18.24% and 22.74% and 16.84% and 15.93%. Further, the “infarct area (weight percentage of the infarct tissue to the total cerebral tissue), X ± SD” value in the assay with rats of permanent MCAO is listed as 19.83 ± 3.53 %; with rats of permanent MCAO (listed as dl-PHBP) it was 19.83±3.53%.
